The values that follow come from patent US20080051418A1, “Arylalkanoic Acid Derivative” (priority 2004, published 2008).

Data set [1] relates to KKA^y mice. Put plainly: Plasma antiatherogenic index increasing action in mice. Type of data set: in vivo. The settings on record: Mus musculus, po, 96 h, 0.005% in powder diet, 4 days, increase rate of (HDL cholesterol/total cholesterol)×100, non-administration group = 100%. On the procedure:
The test compound was mixed with a powder diet (CE-2, CLEA JAPAN, INC.) at a proportion of 0.005% (0.01% for the compound of Example 105) and freely given to KKA^y mice (9 to 12-week-old, 5 mice per group) which are obesity-insulin independent diabetes mellitus (type-2 diabetes) models, for 4 days. During this period, water was freely given. The blood was drawn from fundus and the components were measured using the plasma separated from the blood. The total cholesterol was quantified using L Type Wako cholesterol (Wako Pure Chemical Industries, Ltd.). In addition, an HDL cholesterol precipitation reagent (Wako Pure Chemical Industries, Ltd.) was added to a part of the plasma to allow precipitation of a non-HDL lipoprotein, and the cholesterol (HDL cholesterol) of the supernatant was measured. The plasma antiatherogenic index [(HDL cholesterol/total cholesterol)×100] was calculated from these cholesterol values.

Another data set concerns the target T1, PPARγ-RXRα heterodimer (Homo sapiens, UniProt P37231).
T1 construct: expressed in transfected cells; host or cells: CHO-K1
T1 sequence (P37231 1-505): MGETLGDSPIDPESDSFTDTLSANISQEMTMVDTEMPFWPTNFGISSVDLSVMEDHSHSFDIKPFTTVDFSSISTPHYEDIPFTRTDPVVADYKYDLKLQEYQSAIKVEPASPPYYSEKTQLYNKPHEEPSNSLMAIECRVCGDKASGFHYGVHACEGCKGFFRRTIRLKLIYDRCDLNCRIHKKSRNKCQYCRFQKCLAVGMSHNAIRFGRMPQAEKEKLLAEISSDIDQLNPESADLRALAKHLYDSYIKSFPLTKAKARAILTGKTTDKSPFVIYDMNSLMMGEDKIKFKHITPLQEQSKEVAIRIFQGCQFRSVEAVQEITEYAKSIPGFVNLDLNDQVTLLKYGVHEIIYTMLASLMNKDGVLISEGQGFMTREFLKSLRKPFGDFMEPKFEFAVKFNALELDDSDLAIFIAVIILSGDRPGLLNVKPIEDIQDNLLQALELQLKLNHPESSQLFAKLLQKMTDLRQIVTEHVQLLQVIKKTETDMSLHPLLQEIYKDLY
T1 sequence (P19793 1-462 partner): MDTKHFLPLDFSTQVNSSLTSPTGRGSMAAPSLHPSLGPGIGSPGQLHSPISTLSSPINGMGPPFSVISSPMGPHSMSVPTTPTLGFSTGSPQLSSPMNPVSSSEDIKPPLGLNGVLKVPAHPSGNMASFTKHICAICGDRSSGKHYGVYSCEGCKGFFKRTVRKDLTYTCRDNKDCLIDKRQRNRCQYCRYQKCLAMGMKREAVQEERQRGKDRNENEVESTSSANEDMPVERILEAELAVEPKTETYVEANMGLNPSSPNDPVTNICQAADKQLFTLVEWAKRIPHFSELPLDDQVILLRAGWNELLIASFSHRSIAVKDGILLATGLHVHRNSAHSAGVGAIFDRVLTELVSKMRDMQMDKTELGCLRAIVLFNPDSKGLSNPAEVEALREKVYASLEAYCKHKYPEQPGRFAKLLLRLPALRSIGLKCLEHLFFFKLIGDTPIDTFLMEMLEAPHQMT
The data set is described as follows: PPARγ-RXRα heterodimer ligand activity (luciferase reporter). As to conditions: PPARγ:RXRα:4ERPP/CHO-K1 cells, 18-24 hr, concentration showing 50% of the maximum induction rate. Type of data set: cell-based. In outline: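 CHO-K1 cells carrying PPARγ, RXRα and a 4ERPP luciferase reporter, exposed to compound 18–24 h at 37 °C in Ham F12 with 0.1% fatty acid-free BSA. Luciferase induction expressed relative to untreated cells (= 1). EC50 is concentration giving 50% of maximal induction.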
On the technique in general: A reporter such as luciferase makes a cellular process visible.

The subject of data set [2] is KKA^y mice. The data set is described as follows: Blood glucose and blood lipid (triglyceride) lowering action in mice. The data set is classed as in vivo. The settings on record: Mus musculus, po, 96 h, 0.005% in powder diet, 4 days, non-administration group = 100%. The method, boiled down:
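KKA^y type-2 diabetic mice (9 to 12 weeks old, 5 per group) were fed compound mixed into powder diet at 0.005% or 0.01% ad libitum for 4 days. Plasma from orbital venous plexus blood was assayed for glucose and triglyceride by enzymatic methods.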

In a further data set the target is T2, PPARδ-RXRα heterodimer (Homo sapiens, UniProt Q03181).
T2 construct: expressed in transfected cells
T2 sequence (Q03181 1-441): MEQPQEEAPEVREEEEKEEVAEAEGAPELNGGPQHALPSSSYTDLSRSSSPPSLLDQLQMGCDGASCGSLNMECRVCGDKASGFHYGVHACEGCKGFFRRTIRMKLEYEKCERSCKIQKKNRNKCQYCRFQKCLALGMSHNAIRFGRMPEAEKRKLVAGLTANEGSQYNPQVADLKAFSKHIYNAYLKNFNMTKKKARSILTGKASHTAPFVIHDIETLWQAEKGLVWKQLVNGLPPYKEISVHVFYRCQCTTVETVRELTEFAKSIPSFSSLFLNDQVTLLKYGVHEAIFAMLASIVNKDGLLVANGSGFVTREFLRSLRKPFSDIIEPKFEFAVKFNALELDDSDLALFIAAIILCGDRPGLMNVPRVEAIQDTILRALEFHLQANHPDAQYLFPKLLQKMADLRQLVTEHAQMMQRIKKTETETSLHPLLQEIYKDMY
T2 sequence (P19793 1-462 partner): T1 sequence (P19793 1-462 partner)
Put plainly: PPARδ-RXRα heterodimer ligand activity (luciferase reporter). Type of data set: cell-based. As to conditions: transformant of Reference Example 9a of WO03/099793, 36-48 hr, concentration showing 50% of the maximum induction rate.

Molecules are shown by their SMILES. Like-named read-outs stand apart in the source and are kept apart here.

For orientation: melting point means the temperature of the solid-liquid transition. In general, EC50 refers to the concentration that produces a half-maximal response. A lower EC50 goes with a more potent agent. Molecule `COCOc1ccc(CCCOc2nn(C)cc2CC(=O)O)c(Oc2ncc(C(F)(F)F)cc2Cl)c1` [Example 111, (3-{3-[2-{[3-chloro-5-(trifluoromethyl)pyridin-2-yl]oxy}-4-(methoxymethoxy)phenyl]propoxy}-1-methyl-1H-pyrazol-4-yl)acetic acid] showed a melting point of 122 to 123 °C. Also, the change in vivo at 0.005 % in the data set on KKA^y mice [1] worked out at 11%. Besides, the EC50 on PPARγ-RXRα heterodimer is 3.8 nM. Further, the inhibition in vivo at 0.005 % with KKA^y mice [2] (lowering rate of plasma glucose, read-out: hypoglycemic action (%)) is 64%. The inhibition in vivo at 0.005 % with KKA^y mice [2] (lowering rate of plasma triglyceride, read-out: hypolipidemic action (%)) is 45%. Further, the EC50 at PPARδ-RXRα heterodimer turned out to be 77 nM.
